Measured values: patent US7973024B2, “24-sulfoximine vitamin D3 compounds” (Cyctochroma Inc., priority 2002, dated 2011)

Tests used:
CYP24 = biological target: T1, CYP24 (Homo sapiens, UniProt Q07973); test: CYP24 enzyme assay (stable cell line V79-CYP24 cells); type: cell-based; conditions: [3H-1β]-1α,25(OH)2D3 20 nM, 2 hours
T1 construct: expressed in transfected cells
T1 sequence (Q07973 36-514): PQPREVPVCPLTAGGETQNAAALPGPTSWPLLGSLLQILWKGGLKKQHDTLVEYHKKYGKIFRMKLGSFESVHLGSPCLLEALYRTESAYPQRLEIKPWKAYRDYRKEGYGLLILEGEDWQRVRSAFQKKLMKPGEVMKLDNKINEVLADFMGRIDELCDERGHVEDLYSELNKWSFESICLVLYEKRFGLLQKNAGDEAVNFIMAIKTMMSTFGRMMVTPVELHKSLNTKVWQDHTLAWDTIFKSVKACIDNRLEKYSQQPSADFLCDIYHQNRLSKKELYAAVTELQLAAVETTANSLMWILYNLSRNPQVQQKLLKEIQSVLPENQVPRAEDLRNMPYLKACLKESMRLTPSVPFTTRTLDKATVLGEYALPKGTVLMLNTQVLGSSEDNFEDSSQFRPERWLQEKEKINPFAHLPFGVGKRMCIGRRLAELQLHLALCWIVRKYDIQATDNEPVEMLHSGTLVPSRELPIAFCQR
Experimental: 1. Preparation of Cell Suspension • On the day of the assay, washed the monolayer of V79-CYP24 cells once with 1×PBS buffer and then trypsinize for 5 min at room temperature (approx. 22° C.). Added 1×PBS. Collected cells into tube, centrifuged cells (500×g, 5 min) and resuspended in DMEM+1% BSA media.
2. Cell Plating • Added 150 μl of cell suspension to appropriately labelled wells of a 48-well plate. Incubated plate for 30 minutes at 37° C. in a humidified atmosphere containing 5% CO2 for adherence of cells to wells.
3. Compound Addition • Added 25 μl of inhibitor (10^−6 to 10^−9 M) and then after 10 min added 25 μl of substrate [^3H-1β]-1α,25(OH)2D3 (20 nM) for 2 hours at 37° C. in a humidified atmosphere containing 5% CO2. Both inhibitor and substrate were prepared in DMEM with 1% BSA media in the absence and presence of 100 μM DPPD.
4. Lipid Extraction and Counting • Added 500 μL of methanol to stop the reaction. Transferred to tube. Added 250 μl of dichloromethane and vortexed. Added 250 μl of dichloromethane and 250 μl of saturated KCL and vortexed. Centrifuged at 4000 rpm for 5 min. Triplicate 100 μl aliquots of aqueous fraction were mixed with 600 μl of scintillation fluid and the radioactivity was measured using a scintillation counter. All values were normalized for background. (iii) Results.

VDR = biological target: T2, VDR (Homo sapiens, UniProt P11473); test: VDR binding assay; conditions: B50: displacement of 50 percent [3H]-1,25(OH)2D3 from human recombinant VDR
T2 construct: purchased Biomol
T2 sequence (P11473 1-427): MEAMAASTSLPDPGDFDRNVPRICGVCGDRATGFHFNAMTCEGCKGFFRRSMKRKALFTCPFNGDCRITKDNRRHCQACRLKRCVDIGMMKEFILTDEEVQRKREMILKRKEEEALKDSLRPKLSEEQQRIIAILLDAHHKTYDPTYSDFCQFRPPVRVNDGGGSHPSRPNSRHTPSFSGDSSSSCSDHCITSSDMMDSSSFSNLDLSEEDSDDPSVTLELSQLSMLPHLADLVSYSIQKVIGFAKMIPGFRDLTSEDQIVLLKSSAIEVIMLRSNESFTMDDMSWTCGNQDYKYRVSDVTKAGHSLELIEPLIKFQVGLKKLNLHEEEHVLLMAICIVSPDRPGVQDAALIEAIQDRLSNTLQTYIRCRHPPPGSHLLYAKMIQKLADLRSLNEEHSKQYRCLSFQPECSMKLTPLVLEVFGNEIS
Experimental: 1. VDR 9.4 pmol/μl (human, recombinant, Biomol).
4. TEK300 • Tris-HCI 50 mM • EDTA 1.5 mM • KCI 300 mM Adjust pH to 7.4 (25° C.)
3. Preparation of 1.25(OH)2D3 and test compounds in ethanol
1 μl stock VDR in 2.5 ml TEDK300/Gelatin solution (500 μl/tube), (keep on ice)
• Label tubes according to the following chart, each in triplicate:
• Mixed all tubes via vortex and incubated at room temperature for 1 hour. Added 10 μL of 3H-1,25(OH)2D3 Working Dilution, mixed by vortex and incubated at room temperature for 1 hour 2. Sample processing • Thirty minutes before addition, put Charcoal/Dextran Solution on ice with continuous mixing. Added […] of Charcoal/Dextran Solution to each tube, mixed well and incubated on ice for 30 minutes. Centrifuged @ 2000 rpm for 10 minutes at 4° C. 3. Counting • Pipetted 100 μL of the upper, aqueous phase to a 24 well scintillation counting plate and added 600 μL scintillation fluid per well, covered and mixed well. Counted the plate using a scintillation counter for 5 min/sample. (iv) Calculations: • The amount of 1,25(OH)2D3 to displace 50 percent [^3H]-1,25(OH)2D3 from VDR was calculated as B50 for 1,25(OH)2D3. The VDR binding of other compounds was calculated as B50 relative to a value of 1 for 1,25(OH)2D3.

MCF-7 cells = test: [3H]-thymidine proliferation assay with MCF-7 cells; type: cell-based; conditions: together with calcitriol, three days, [3H]-thymidine 6 h
Experimental: 1. Preparation of Cell Suspension • When MCF-7 cells were 70-80% confluent, aspirated growth media. Washed the cells with 1×PBS. Trypsinized with trypsin-EDTA from the plate, collected cells from the tissue culture flask, centrifuged (500×g, 5 min) and resuspended in growth media.
2. Cell Plating. • Counted the cells and adjusted the cell density to 25,000/ml. Added 200 μl per well in a 96 well plate. Incubated plate for 24 h at 37° C. in a humidified atmosphere plus 5% CO2. Aspirated used media and replaced with 150 μl per well with proliferation media.
3. Substrate Addition. • Added 25 μl of 1α,25(OH)2D3 (final concentration 10^−6 M, 10^−7 M, 10^−8 M, 10^−9 M, 10^−10 M, 10^−11 M) into each designated well. Added 25 μl of substrate (final concentration 10^−7 M, 5×10^−8 M, 10^−8 M or 10^−9 M) into each designated well. Incubated plates for 3 days at 37° C. in a humidified atmosphere plus 5% CO2.
4. ^3H-Thymidine incorporation. • Added ^3H-thymidine at 0.02 μCi per well and incubated at 37° C. in a humidified atmosphere plus 5% CO2 for 6 h.
5. Plate Harvesting. • Aspirated all media and washed cells with 1×PBS. Trypsinized cells for 30 min at 37° C. in a humidified atmosphere plus 5% CO2. Harvested cells onto a 96 well filter plate (Millipore) using a Tomtec Cell Harvestor, according to manufacturers instructions.
6. Scintillation Counting. • Added 25 μl of scintillation fluid per well. Counted the plate using a scintillation counter.

SMILES | IC50 (CYP24) | IC50 (VDR) | inhibition of proliferation of MCF-7 cells (MCF-7 cells)
C=C1/C(=C\C=C2/CCC[C@]3(C)[C@@H]([C@H](C)CCS(=N)(=O)c4ccccc4)CC[C@@H]23)C[C@@H](O)C[C@@H]1O (single isomer, unassigned) [I(a)] | 4 nM | > 2000 nM | act to inhibit the proliferation
C=C1/C(=C\C=C2/CCC[C@]3(C)[C@@H]([C@H](C)CCS(=O)(=NC)c4ccccc4)CC[C@@H]23)C[C@@H](O)C[C@@H]1O (single isomer, unassigned) [I(e)] | 29 nM | > 2000 nM | act to inhibit the proliferation
C[C@H](CCS(=N)(=O)c1ccccc1)[C@H]1CC[C@H]2/C(=C/C=C3C[C@@H](O)C[C@H](O)C3)CCC[C@]12C (single isomer, unassigned) [I(i), 24-Phenyl Sulfoximine 19-Nor-Vitamin-D3] | 8.5 nM | > 2000 nM | act to inhibit the proliferation
C=C1/C(=C\C=C2/CCC[C@]3(C)[C@@H]([C@H](C)CCS(=O)(=NC)c4ccccc4)CC[C@@H]23)C[C@@H](O)C[C@@H]1O (single isomer, unassigned) [I(g)] | 26 nM | – | act to inhibit the proliferation
